# Tested on: HCC1143
# Assay: normalised response (% of control), CellTiter-Glo; higher = more viable cells (100 = DMSO, 0 = benzethonium chloride kill control)
# Conditions: incubation time: 72 h
# Method in brief: (§1)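 In 384-well plates holding compound at 5 concentrations in 10-fold steps over a 10,000-fold range specific to each compound, breast cancer cell lines were seeded as 20 µl suspension and incubated 72 h. CellTox Green fluorescence was measured at 485/520 nm, after which CellTiter-Glo luminescence was measured following 10 min at room temperature. Plate signals were normalised to 0.1 % DMSO (100) and a positive kill control (0), and each value is the normalised signal at a single concentration.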
row,SMILES,normalised response [%]
1,O=NN(CCCl)C(=O)NCCCl [Carmustine] (1 nM),97.8
2,CC1=C2C[C@H]3[C@@H](CC=C4C[C@@H](O)CC[C@@]43C)[C@@H]2CC[C@]12O[C@@H]1C[C@H](C)CN[C@H]1[C@H]2C [Cyclopamine] (1 nM),103
3,CC1(C)CNc2cc(NC(=O)c3cccnc3NCc3ccncc3)ccc21 [Motesanib] (1 nM),99
4,CC[C@@H]1C(=O)OC[C@@H]1Cc1cncn1C [Pilocarpine] (4 nM),93.7
5,CC(C)(C)c1cnc(CSc2cnc(NC(=O)C3CCNCC3)s2)o1 [SNS-032] (1 nM),97.3
6,Cn1cnc2c(F)c(Nc3ccc(Br)cc3Cl)c(C(=O)NOCCO)cc21 [Selumetinib] (1 nM),89.6
7,Nc1nc2[nH]cnc2c(=S)[nH]1 [Thioguanine] (1 nM),98.9

# Tested on: MDA-MB-468
# Assay: as above
# Conditions: incubation time: 72 h
# Method in brief: as §1
row,SMILES,normalised response [%]
1,O=NN(CCCl)C(=O)NCCCl [Carmustine] (1 nM),98.1
2,CC1=C2C[C@H]3[C@@H](CC=C4C[C@@H](O)CC[C@@]43C)[C@@H]2CC[C@]12O[C@@H]1C[C@H](C)CN[C@H]1[C@H]2C [Cyclopamine] (1 nM),101
3,CC1(C)CNc2cc(NC(=O)c3cccnc3NCc3ccncc3)ccc21 [Motesanib] (1 nM),103
4,CC[C@@H]1C(=O)OC[C@@H]1Cc1cncn1C [Pilocarpine] (4 nM),98.4
5,CC(C)(C)c1cnc(CSc2cnc(NC(=O)C3CCNCC3)s2)o1 [SNS-032] (1 nM),92
6,Cn1cnc2c(F)c(Nc3ccc(Br)cc3Cl)c(C(=O)NOCCO)cc21 [Selumetinib] (1 nM),93.8
7,Nc1nc2[nH]cnc2c(=S)[nH]1 [Thioguanine] (1 nM),94.5

# Tested on: HCC1599
# Assay: as above
# Conditions: incubation time: 72 h
# Method in brief: as §1
row,SMILES,normalised response [%]
1,O=NN(CCCl)C(=O)NCCCl [Carmustine] (1 nM),103
2,CC1=C2C[C@H]3[C@@H](CC=C4C[C@@H](O)CC[C@@]43C)[C@@H]2CC[C@]12O[C@@H]1C[C@H](C)CN[C@H]1[C@H]2C [Cyclopamine] (1 nM),98.1
3,CC1(C)CNc2cc(NC(=O)c3cccnc3NCc3ccncc3)ccc21 [Motesanib] (1 nM),91.5
4,CC[C@@H]1C(=O)OC[C@@H]1Cc1cncn1C [Pilocarpine] (4 nM),76.7
5,CC(C)(C)c1cnc(CSc2cnc(NC(=O)C3CCNCC3)s2)o1 [SNS-032] (1 nM),96.3
6,Cn1cnc2c(F)c(Nc3ccc(Br)cc3Cl)c(C(=O)NOCCO)cc21 [Selumetinib] (1 nM),93.2
7,Nc1nc2[nH]cnc2c(=S)[nH]1 [Thioguanine] (1 nM),105

# Tested on: MDA-MB-436
# Assay: as above
# Conditions: incubation time: 72 h
# Method in brief: as §1
row,SMILES,normalised response [%]
1,O=NN(CCCl)C(=O)NCCCl [Carmustine] (1 nM),80
2,CC1=C2C[C@H]3[C@@H](CC=C4C[C@@H](O)CC[C@@]43C)[C@@H]2CC[C@]12O[C@@H]1C[C@H](C)CN[C@H]1[C@H]2C [Cyclopamine] (1 nM),106
3,CC1(C)CNc2cc(NC(=O)c3cccnc3NCc3ccncc3)ccc21 [Motesanib] (1 nM),94.8
4,CC[C@@H]1C(=O)OC[C@@H]1Cc1cncn1C [Pilocarpine] (4 nM),79.3
5,CC(C)(C)c1cnc(CSc2cnc(NC(=O)C3CCNCC3)s2)o1 [SNS-032] (1 nM),84.1
6,Cn1cnc2c(F)c(Nc3ccc(Br)cc3Cl)c(C(=O)NOCCO)cc21 [Selumetinib] (1 nM),80.8
7,Nc1nc2[nH]cnc2c(=S)[nH]1 [Thioguanine] (1 nM),94

# Tested on: BT-549
# Assay: as above
# Conditions: incubation time: 72 h
# Method in brief: as §1
row,SMILES,normalised response [%]
1,O=NN(CCCl)C(=O)NCCCl [Carmustine] (1 nM),97.1
2,CC1=C2C[C@H]3[C@@H](CC=C4C[C@@H](O)CC[C@@]43C)[C@@H]2CC[C@]12O[C@@H]1C[C@H](C)CN[C@H]1[C@H]2C [Cyclopamine] (1 nM),104
3,CC1(C)CNc2cc(NC(=O)c3cccnc3NCc3ccncc3)ccc21 [Motesanib] (1 nM),99.7
4,CC[C@@H]1C(=O)OC[C@@H]1Cc1cncn1C [Pilocarpine] (4 nM),101
5,CC(C)(C)c1cnc(CSc2cnc(NC(=O)C3CCNCC3)s2)o1 [SNS-032] (1 nM),101
6,Cn1cnc2c(F)c(Nc3ccc(Br)cc3Cl)c(C(=O)NOCCO)cc21 [Selumetinib] (1 nM),103
7,Nc1nc2[nH]cnc2c(=S)[nH]1 [Thioguanine] (1 nM),104

# Tested on: HDQ-P1
# Assay: as above
# Conditions: incubation time: 72 h
# Method in brief: as §1
row,SMILES,normalised response [%]
1,O=NN(CCCl)C(=O)NCCCl [Carmustine] (1 nM),99.3
2,CC1=C2C[C@H]3[C@@H](CC=C4C[C@@H](O)CC[C@@]43C)[C@@H]2CC[C@]12O[C@@H]1C[C@H](C)CN[C@H]1[C@H]2C [Cyclopamine] (1 nM),103
3,CC1(C)CNc2cc(NC(=O)c3cccnc3NCc3ccncc3)ccc21 [Motesanib] (1 nM),93.5
4,CC[C@@H]1C(=O)OC[C@@H]1Cc1cncn1C [Pilocarpine] (4 nM),95.7
5,CC(C)(C)c1cnc(CSc2cnc(NC(=O)C3CCNCC3)s2)o1 [SNS-032] (1 nM),95
6,Cn1cnc2c(F)c(Nc3ccc(Br)cc3Cl)c(C(=O)NOCCO)cc21 [Selumetinib] (1 nM),91.4
7,Nc1nc2[nH]cnc2c(=S)[nH]1 [Thioguanine] (1 nM),98.4

# Tested on: MDA-MB-453
# Assay: as above
# Conditions: incubation time: 72 h
# Method in brief: as §1
row,SMILES,normalised response [%]
1,O=NN(CCCl)C(=O)NCCCl [Carmustine] (1 nM),109
2,CC1=C2C[C@H]3[C@@H](CC=C4C[C@@H](O)CC[C@@]43C)[C@@H]2CC[C@]12O[C@@H]1C[C@H](C)CN[C@H]1[C@H]2C [Cyclopamine] (1 nM),111
3,CC1(C)CNc2cc(NC(=O)c3cccnc3NCc3ccncc3)ccc21 [Motesanib] (1 nM),103
4,CC[C@@H]1C(=O)OC[C@@H]1Cc1cncn1C [Pilocarpine] (4 nM),111
5,CC(C)(C)c1cnc(CSc2cnc(NC(=O)C3CCNCC3)s2)o1 [SNS-032] (1 nM),99.2
6,Cn1cnc2c(F)c(Nc3ccc(Br)cc3Cl)c(C(=O)NOCCO)cc21 [Selumetinib] (1 nM),111
7,Nc1nc2[nH]cnc2c(=S)[nH]1 [Thioguanine] (1 nM),98.1

# Tested on: MCF-10A
# Assay: as above
# Conditions: incubation time: 72 h
# Method in brief: as §1
row,SMILES,normalised response [%]
1,O=NN(CCCl)C(=O)NCCCl [Carmustine] (1 nM),87.3
2,CC1=C2C[C@H]3[C@@H](CC=C4C[C@@H](O)CC[C@@]43C)[C@@H]2CC[C@]12O[C@@H]1C[C@H](C)CN[C@H]1[C@H]2C [Cyclopamine] (1 nM),108
3,CC1(C)CNc2cc(NC(=O)c3cccnc3NCc3ccncc3)ccc21 [Motesanib] (1 nM),91.8
4,CC[C@@H]1C(=O)OC[C@@H]1Cc1cncn1C [Pilocarpine] (4 nM),94.6
5,CC(C)(C)c1cnc(CSc2cnc(NC(=O)C3CCNCC3)s2)o1 [SNS-032] (1 nM),95.5
6,Cn1cnc2c(F)c(Nc3ccc(Br)cc3Cl)c(C(=O)NOCCO)cc21 [Selumetinib] (1 nM),81.2
7,Nc1nc2[nH]cnc2c(=S)[nH]1 [Thioguanine] (1 nM),101

# Tested on: HCC1937
# Assay: as above
# Conditions: incubation time: 72 h
# Method in brief: as §1
row,SMILES,normalised response [%]
1,O=NN(CCCl)C(=O)NCCCl [Carmustine] (1 nM),97.6
2,CC1=C2C[C@H]3[C@@H](CC=C4C[C@@H](O)CC[C@@]43C)[C@@H]2CC[C@]12O[C@@H]1C[C@H](C)CN[C@H]1[C@H]2C [Cyclopamine] (1 nM),106
3,CC1(C)CNc2cc(NC(=O)c3cccnc3NCc3ccncc3)ccc21 [Motesanib] (1 nM),93.1
4,CC[C@@H]1C(=O)OC[C@@H]1Cc1cncn1C [Pilocarpine] (4 nM),92.8
5,CC(C)(C)c1cnc(CSc2cnc(NC(=O)C3CCNCC3)s2)o1 [SNS-032] (1 nM),90.8
6,Cn1cnc2c(F)c(Nc3ccc(Br)cc3Cl)c(C(=O)NOCCO)cc21 [Selumetinib] (1 nM),89.5
7,Nc1nc2[nH]cnc2c(=S)[nH]1 [Thioguanine] (1 nM),92.8

# Tested on: CAL-51
# Assay: as above
# Conditions: incubation time: 72 h
# Method in brief: as §1
row,SMILES,normalised response [%]
1,O=NN(CCCl)C(=O)NCCCl [Carmustine] (1 nM),87.1
